Assays:
[1] = biological target: T1, soluble guanylate cyclase (sGC) (Homo sapiens, UniProt Q02108+Q02153); test: sGC-HEK-cGMP assay, LC/MS detection, with SNP incubation (Example 2A); assay type: cell-based; details: HEK293 cells, in the presence of 10 μM SNP; top of concentration-response curve not fitted to 100%; read-out: sGC_HEK_LCMS uEC50 (nM) Binned (unconstrained)
T1 construct: endogenously expressing soluble guanylate cyclase (sGC); endogenous in cells; host or cells: HEK293
T1 sequence (Q02153 1-619): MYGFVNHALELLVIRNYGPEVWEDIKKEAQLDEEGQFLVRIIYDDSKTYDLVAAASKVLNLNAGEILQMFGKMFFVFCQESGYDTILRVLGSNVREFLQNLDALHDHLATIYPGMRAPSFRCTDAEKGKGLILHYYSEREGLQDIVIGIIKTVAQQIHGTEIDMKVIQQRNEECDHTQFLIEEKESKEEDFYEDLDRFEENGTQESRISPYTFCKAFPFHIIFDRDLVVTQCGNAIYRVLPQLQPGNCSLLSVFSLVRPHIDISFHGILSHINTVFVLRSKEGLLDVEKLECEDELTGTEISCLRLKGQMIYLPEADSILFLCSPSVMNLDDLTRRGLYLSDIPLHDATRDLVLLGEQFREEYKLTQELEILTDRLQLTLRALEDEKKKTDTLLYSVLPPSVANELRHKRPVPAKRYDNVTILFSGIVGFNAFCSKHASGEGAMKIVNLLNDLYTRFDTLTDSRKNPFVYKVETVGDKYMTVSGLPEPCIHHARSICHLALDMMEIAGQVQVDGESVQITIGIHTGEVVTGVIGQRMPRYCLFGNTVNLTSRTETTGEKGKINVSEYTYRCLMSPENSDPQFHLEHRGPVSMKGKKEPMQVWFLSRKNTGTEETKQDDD
T1 sequence (Q02108 1-690): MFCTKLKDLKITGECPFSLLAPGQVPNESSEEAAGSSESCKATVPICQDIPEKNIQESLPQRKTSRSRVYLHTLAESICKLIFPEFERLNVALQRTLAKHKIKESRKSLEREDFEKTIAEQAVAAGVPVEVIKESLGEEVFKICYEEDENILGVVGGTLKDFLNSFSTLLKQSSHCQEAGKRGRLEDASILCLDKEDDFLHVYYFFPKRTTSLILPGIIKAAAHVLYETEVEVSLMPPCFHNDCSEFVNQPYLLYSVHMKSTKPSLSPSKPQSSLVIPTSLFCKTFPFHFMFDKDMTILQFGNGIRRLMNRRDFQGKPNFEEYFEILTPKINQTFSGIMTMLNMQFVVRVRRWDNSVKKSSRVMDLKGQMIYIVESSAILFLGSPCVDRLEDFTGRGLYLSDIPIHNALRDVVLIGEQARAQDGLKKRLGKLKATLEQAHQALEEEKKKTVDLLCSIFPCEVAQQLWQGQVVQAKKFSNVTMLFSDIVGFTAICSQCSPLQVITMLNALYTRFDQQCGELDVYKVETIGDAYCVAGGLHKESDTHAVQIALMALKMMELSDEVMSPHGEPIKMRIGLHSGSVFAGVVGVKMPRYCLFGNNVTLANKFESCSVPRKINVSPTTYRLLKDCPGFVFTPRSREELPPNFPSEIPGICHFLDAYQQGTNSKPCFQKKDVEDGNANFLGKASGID
Description: Human embryonic kidney cells (HEK293), endogenously expressing soluble guanylate cyclase (sGC), were used to evaluate the activity of test compounds. Compounds stimulating the sGC receptor should cause an increase in the intracellular concentration of cGMP. HEK 293 cells were seeded in Dulbecco's Modification of Eagle's Medium supplemented with fetal bovine serum (10% final) and L-glutamine (2 mM final) in a 200 μL volume at a density of 1×10^5 cells/well in a poly-D-lysine coated 96 well flat bottom plate and grown overnight at 37° C. Medium was aspirated and cells were washed with 1× Hank's Buffered Saline Salt Solution (200 μL). Cells were then incubated for 15 minutes at 37° C. with 0.5 mM 3-isobutyl-1-methylxanthine (200 μL). Test article and sodium nitroprusside were then added to the assay mixture (2 μL each) and incubated at 37° C. for 10 minutes. After the 10 minute incubation, the assay mixture was aspirated and 0.1M HCl (200 μL) was added to the cells. The plate was incubated at 4° C. for 30 minutes in the 0.1M HCl to stop the reaction and lysed the cells. The plates were then centrifuged at 1,200 g for 5 minutes at room temperature. Supernatants were collected and transferred to a new flat bottom 96 well plate for analysis. Vehicle controls were carried out using DMSO (1%). A known sGC stimulator, BAY 41-2272, was used as the positive control. Samples were diluted with an equal volume of 1 M Ammonium Acetate (pH 7) to neutralize samples for better chromatography. A 2× cGMP standard curve was prepared in 0.1 M HCl and then diluted with an equal volume of 1 M Ammonium Acetate, with the following final concentrations in nM: 1024, 512, 256, 128, 64, 32, 16, 8, 4, 2, 1. cGMP concentrations were determined from each sample using the LC/MS conditions (Table 2 below) and calculated standard curve. EC50 values were calculated from concentration-response curves generated with GraphPad Prism Software.

[2] = biological target: T2, human recombinant soluble guanylate cyclase enzyme α1β1 (Homo sapiens, UniProt Q02108+Q02153); test: Purified human recombinant sGC α1β1 enzyme assay with DETA-NONOate, cGMP HTRF (Example 5); assay type: biochemical; details: 30 uM DETA NONOate, 50% of maximal response of 30 uM Compound Y, read-out: sGC_Enz_HTRF_a1b1 EC50/IC50 Abs (Norm) (nM) Binned
T2 construct: purchased Enzo Life Sciences ALX-201-177
T2 sequence (Q02153 1-619): T1 sequence (Q02153 1-619)
T2 sequence (Q02108 1-690): T1 sequence (Q02108 1-690)
Description: Purified human recombinant soluble guanylate cyclase enzyme α1β1 (h sGC) obtained from Enzo Life Sciences (P/N: ALX-201-177) was used to evaluate the activity of test compounds. The assay reactions contained 0.1 M Tris (pH 8.0), 0.5 mg/mL BSA, 2 mM DTT, 4 mM MgCl2, 30 uM DETA NONOate (Enzo Life Science P/N: ALX-430-014), and 12.5 ng/ml human soluble guanylate cyclase enzyme. […] Guanosine 5′-triphosphate (Sigma-Aldrich P/N: G8877) was added to a final concentration of 300 μM and enzyme reactions were incubated (100 μL, 384-well plate format) at 37° C. for 20 minutes. The controls contained 3% DMSO (low control), or 30 uM of Compound Y (high control). After the 20 minute incubation, the reaction was stopped with the addition of 100 μL of ice cold 20% acetic acid.
cGMP concentrations in all samples were determined using the cGMP HTRF (Cisbio P/N: 62GM2PEC) assay per manufacturer's instructions. A cGMP standard curve was fit using a 4-parameter fit (log(inhibitor) vs. response variable slope) using GraphPad Prism Software v.6. Samples were diluted appropriately to ensure that values fell within the linear range of the standard curve.
Data were fit using a 4-parameter fit (log(agonist) vs. response variable slope) using GraphPad Prism Software v.6.

Row | EC50 [1] [nM] | EC50 [2] [nM] | SMILES
1 | 100 to 1000 | 1000 to 5000 | OCCOc1nc(-c2cc(-c3ccon3)n(Cc3ccccc3F)n2)ncc1F [Compound I-1]
2 | 100 to 1000 | 1000 to 5000 | CN(C)CCOc1nc(-c2cc(-c3ccon3)n(Cc3ccccc3F)n2)ncc1F [Compound I-2]
